The source made the active and inactive calls. Rule as the data show it: actives have a measured IC50 and inactives only a lower limit.

For the assay, the target named is Envelope glycoprotein gp160 (Human immunodeficiency virus 1, UniProt Q6QLK5). The experiment in a line: cell-free HIV fusion peptide-binding blockers – biochemical, uHTS, fluorescence dequenching, […] (AID 1986).
Envelope glycoprotein gp160, sequence (Q6QLK5 whole entry, the tested form may be a part): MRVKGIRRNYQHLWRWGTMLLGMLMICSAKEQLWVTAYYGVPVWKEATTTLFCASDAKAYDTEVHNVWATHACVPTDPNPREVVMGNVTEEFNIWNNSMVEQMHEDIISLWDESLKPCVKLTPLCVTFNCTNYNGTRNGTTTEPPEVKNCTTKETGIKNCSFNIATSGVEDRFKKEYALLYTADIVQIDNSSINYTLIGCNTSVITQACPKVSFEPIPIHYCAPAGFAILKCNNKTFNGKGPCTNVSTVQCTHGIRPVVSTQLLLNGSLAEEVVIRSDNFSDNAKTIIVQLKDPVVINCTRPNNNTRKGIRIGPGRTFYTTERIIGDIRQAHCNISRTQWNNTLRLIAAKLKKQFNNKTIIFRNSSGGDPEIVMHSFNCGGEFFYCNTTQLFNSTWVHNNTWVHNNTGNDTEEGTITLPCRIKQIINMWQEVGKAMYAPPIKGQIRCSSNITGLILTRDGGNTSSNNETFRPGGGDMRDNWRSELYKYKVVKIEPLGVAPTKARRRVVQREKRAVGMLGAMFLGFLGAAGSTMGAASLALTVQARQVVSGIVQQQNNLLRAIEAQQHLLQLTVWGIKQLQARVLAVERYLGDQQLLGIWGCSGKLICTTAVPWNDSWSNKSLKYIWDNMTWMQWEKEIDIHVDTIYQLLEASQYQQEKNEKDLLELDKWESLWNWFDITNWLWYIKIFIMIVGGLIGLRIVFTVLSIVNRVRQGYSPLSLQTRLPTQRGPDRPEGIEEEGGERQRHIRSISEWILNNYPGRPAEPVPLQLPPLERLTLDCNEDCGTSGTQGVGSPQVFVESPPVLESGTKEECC
Regarding `O=C(O)c1cc(NN=C2c3ccccc3-c3ccccc32)ccc1Cl`, the 50% inhibitory concentration (IC50) (in general, the point on the concentration scale where inhibition reaches its midpoint) is 23.7 µM (active). The result for `CCOc1cc(/C=C2\SC(=S)N(C(C(=O)O)c3ccccc3)C2=O)ccc1O` (stereo not drawn) reads 22.6 µM (active). The result for `Cc1ccc(-c2cc(C(=O)Nc3ccc(S(=O)(=O)Nc4onc(C)c4C)cc3)c3ccccc3n2)cc1` reads 18.1 µM (active).

Source of the values: ChEMBL document CHEMBL1201862, “PubChem BioAssay data set” (2004).
